Source: US12559629B2, “Method for preparing a stable Trypan Blue solution” (BECKMAN COULTER, INC., priority 2020, dated 2026)
Read-outs that look alike come from different tables or passages of the source. Each block holds one compound with its values, some of them ahead of it.

Columns and labels:
[1] = cited from earlier work
[2] = Preliminary experiments: salt-induced precipitation/aggregation of 0.2% w/v aqueous Trypan Blue; type: physicochemical
[3] = Dye precipitation on mixing Nominal 0.4% Trypan Blue in NaCl with polycationic compounds; type: physicochemical; settings: Nominal 0.4% Trypan Blue in NaCl (0.20 mL) mixed with 0.5 mg mL^−1 compound in PBS (0.20 mL)
From the text: In the present study, Trypan Blue was mixed with various cell culture medium containing polycationic compounds. Nominal 0.4% Trypan Blue in NaCl was mixed with PBS (negative control), kanamycin (a positively charged aminoglycoside), and spermidine (a positively charged polyamine). […] This effect can be reasonably generalized to other polycationic compounds, particularly those containing amine functional groups.

SMILES: Cc1cc(-c2ccc(/N=N/c3ccc4c(S(=O)(=O)O)cc(S(=O)(=O)O)c(N)c4c3O)c(C)c2)ccc1/N=N/c1ccc2c(S(=O)(=O)O)cc(S(=O)(=O)O)c(N)c2c1O [Evans Blue]
Solubility of precipitate with neomycin ([1]; pH 8.5): insoluble | Solubility of precipitate with neomycin ([1]; pH 10.4): dissolves

Formation of red colored dye aggregates ([2]; 0.2% w/v in deionized water, two weeks at 4° C.): did not form red colored dye aggregates
SMILES: Cc1cc(-c2ccc(/N=N/c3c(S(=O)(=O)O)cc4cc(S(=O)(=O)O)cc(N)c4c3O)c(C)c2)ccc1/N=N/c1c(S(=O)(=O)O)cc2cc(S(=O)(=O)O)cc(N)c2c1O [Trypan Blue]

SMILES: [Cl-].[Cs+] [cesium chloride]
Dye aggregation of Trypan Blue in presence of salt ([2]; 150 mM concentrations): produced dye aggregation

SMILES: [Cl-].[Li+] [lithium chloride]
Dye aggregation of Trypan Blue in presence of salt ([2]; concentrations as high as 600 mM): did not promote dye aggregation

Dye aggregation of Trypan Blue in presence of salt ([2]; 150 mM sodium concentrations): promoted dye aggregation
SMILES: O=P([O-])(O)O.[Na+] [monosodium phosphate]

SMILES: [Cl-].[K+] [potassium chloride]
Dye aggregation of Trypan Blue in presence of salt ([2]; 150 mM concentrations): produced dye aggregation

SMILES: [Cl-].[Na+] [sodium chloride]
Precipitation of 0.2% w/v Trypan Blue ([2]; 150 mM salt, storage for 16 hours at 4° C.): exhibited precipitation | Precipitation of the dye from 0.2% w/v aqueous solution of Trypan Blue ([2]; addition of 250 mM salt): rapid precipitation of the dye

SMILES: O=S([O-])[O-].[Na+].[Na+] [sodium sulfite]
Dye aggregation of Trypan Blue in presence of salt ([2]; 150 mM sodium concentrations): promoted dye aggregation

SMILES: NCCCCNCCCN [spermidine]
Precipitation of Trypan Blue [3]: trigger immediate precipitation of Trypan Blue
